# Measured values as given in PubChem BioAssay AID224 (DTP/NCI, 2004).
# Where “and” joins values, the source holds several entries; their conditions need not be identical. Identical values can stand only once. Inconclusive results and toxic doses are left out. Starred links: 1 amine or outer side, 2 acyl side, 3 side chain; linkers in the order of their positions; H or OH if unused. Positions of bridges follow the written chain, without caps; N, C: chain ends. Non-standard residues stand in square brackets, D forms with d. Residues, ends and D or L forms follow the SMILES beside them. Chains are numbered I, II in the order given. Actinocin(9to1) = Cc1c2oc3c(C)ccc(C(=O)[*:1])c3nc-2c(C(=O)[*:2])c(N)c1=O; aThr = C[C@H](O)[C@H](N)C(=O)O; NMeV = CN[C@H](C(=O)O)C(C)C; Sar = CNCC(=O)O
# Tested on: P335 leukemia ip, BDF1 mice, survival T/C %
# Assay: NCI In Vivo Anticancer Drug Screen. Data for tumor model P335 Leukemia (intraperitoneal) in B6D2F1 (BDF1) mice
# Conditions: endpoint: mean survival time, higher = longer survival
# Method: The antitumor activity of compounds was measured in mice bearing transplantable tumors. Survival or tumor size were measured and the results are expressed as the measurement made in the treated group (T) divided by the measurement made in the vehicle treated control group (C). The tumor model used in this assay is P335 Leukemia (intraperitoneal) in B6D2F1 (BDF1) mice
# [1] = dose: 5.0 mg/kg/injection, schedule: Q01DX Z (ip), vehicle: carboxymethylcellulose (CMC)
# [2] = dose: 10.0 mg/kg/injection, schedule: Q01DX Z (ip), vehicle: carboxymethylcellulose (CMC)
# [3] = dose: 9.4 mg/kg/injection, schedule: Q01DX Z (ip), vehicle: carboxymethylcellulose (CMC)
# [4] = dose: 18.75 mg/kg/injection, schedule: Q01DX Z (ip), vehicle: carboxymethylcellulose (CMC)
smiles,measurement,setting,value
C[C@]12CCC(=O)C[C@H]1CC[C@@H]1[C@@H]2CC[C@@]2(C)[C@H]1CC[C@]2(C)O,T/C,"dose: 16.0 mg/kg/injection, schedule: Q01DX Z (sc), vehicle: steriod suspending solution",106 % of control
same,T/C,"dose: 31.0 mg/kg/injection, schedule: Q01DX Z (sc), vehicle: steriod suspending solution",93 % of control
same,T/C,"dose: 62.5 mg/kg/injection, schedule: Q01DX Z (sc), vehicle: steriod suspending solution",98 % of control and 111 % of control
same,T/C,"dose: 125.0 mg/kg/injection, schedule: Q01DX Z (sc), vehicle: steriod suspending solution",111 % of control
same,T/C,"dose: 250.0 mg/kg/injection, schedule: Q01DX Z (sc), vehicle: steriod suspending solution",109 % of control
same,T/C,"dose: 500.0 mg/kg/injection, schedule: Q01DX Z (sc), vehicle: steriod suspending solution",109 % of control
same,T/C,"dose: 1000.0 mg/kg/injection, schedule: Q01DX Z (sc), vehicle: steriod suspending solution",98 % of control
N#[N+]c1cnc([O-])[nH]c1=O,T/C,"dose: 0.31 mg/kg/injection, schedule: Q01DX Z (ip), vehicle: carboxymethylcellulose (CMC)",96 % of control
same,T/C,"dose: 0.62 mg/kg/injection, schedule: Q01DX Z (ip), vehicle: carboxymethylcellulose (CMC)",123 % of control
same,T/C,"dose: 1.25 mg/kg/injection, schedule: Q01DX Z (ip), vehicle: carboxymethylcellulose (CMC)",103 % of control
same,T/C,[1],124 % of control
same,T/C,[2],103 % of control and 104 % of control and 110 % of control
O=NN(CCCl)C(=O)NCCCl,T/C,"dose: 16.0 mg/kg/injection, schedule: Q01DX Z (ip), vehicle: saline",95 % of control
CC(CCC(C)OS(C)(=O)=O)OS(C)(=O)=O (stereo not drawn),T/C,[1],88 % of control
same,T/C,[2],90 % of control
same,T/C,"dose: 20.0 mg/kg/injection, schedule: Q01DX Z (ip), vehicle: carboxymethylcellulose (CMC)",87 % of control
Nc1nc(SCc2ccccc2)c2[nH]cnc2n1,T/C,"dose: 2.35 mg/kg/injection, schedule: Q01DX Z (ip), vehicle: carboxymethylcellulose (CMC)",87 % of control
same,T/C,[3],108 % of control
same,T/C,[4],87 % of control
Nc1nc(=S)c2[nH]cnc2[nH]1,T/C,"dose: 0.12 mg/kg/injection, schedule: Q01DX Z (ip), vehicle: carboxymethylcellulose (CMC)",92 % of control
same,T/C,"dose: 0.25 mg/kg/injection, schedule: Q01DX Z (ip), vehicle: carboxymethylcellulose (CMC)",95 % of control
same,T/C,"dose: 0.5 mg/kg/injection, schedule: Q01DX Z (ip), vehicle: carboxymethylcellulose (CMC)",95 % of control
same,T/C,"dose: 1.0 mg/kg/injection, schedule: Q01DX Z (ip), vehicle: carboxymethylcellulose (CMC)",101 % of control
same,T/C,"dose: 2.0 mg/kg/injection, schedule: Q01DX Z (ip), vehicle: carboxymethylcellulose (CMC)",95 % of control
O=C(Nc1ccc(C2=NCCN2)cc1)c1cccc(C(=O)Nc2ccc(C3=NCCN3)cc2)c1,T/C,[3],98 % of control
same,T/C,[4],114 % of control
same,T/C,"dose: 37.5 mg/kg/injection, schedule: Q01DX Z (ip), vehicle: carboxymethylcellulose (CMC)",123 % of control
same,T/C,"dose: 75.0 mg/kg/injection, schedule: Q01DX Z (ip), vehicle: carboxymethylcellulose (CMC)",98 % of control
[I][Hg][CH2]C1COC([CH2][Hg][I])CO1 (stereo not drawn),T/C,"dose: 3.75 mg/kg/injection, schedule: Q01DX Z (ip), vehicle: carboxymethylcellulose (CMC)",110 % of control
O=P1(N(CCCl)CCCl)NCCCO1 (stereo not drawn),T/C,"dose: 6.25 mg/kg/injection, schedule: Q01DX Z (ip), vehicle: saline",113 % of control
same,T/C,"dose: 200.0 mg/kg/injection, schedule: Q01DX Z (ip), vehicle: saline",107 % of control
COC12C(COC(N)=O)C3=C(C(=O)C(C)=C(N)C3=O)N1CC1C2N1C (stereo not drawn),T/C,"dose: 0.63 mg/kg/injection, schedule: Q01DX Z (ip), vehicle: carboxymethylcellulose (CMC)",110 % of control
same,T/C,[1],160 % of control and 168 % of control
CC(=O)N(C)C,T/C,"dose: 250.0 mg/kg/injection, schedule: Q01DX Z (ip), vehicle: saline",95 % of control
same,T/C,"dose: 500.0 mg/kg/injection, schedule: Q01DX Z (ip), vehicle: saline",110 % of control
same,T/C,"dose: 1000.0 mg/kg/injection, schedule: Q01DX Z (ip), vehicle: saline",92 % of control
same,T/C,"dose: 2000.0 mg/kg/injection, schedule: Q01DX Z (ip), vehicle: saline",90 % of control
Cn1cnc([N+](=O)[O-])c1Sc1ncnc2nc[nH]c12,T/C,"dose: 12.5 mg/kg/injection, schedule: Q01DX Z (ip), vehicle: carboxymethylcellulose (CMC)",89 % of control
same,T/C,"dose: 25.0 mg/kg/injection, schedule: Q01DX Z (ip), vehicle: carboxymethylcellulose (CMC)",105 % of control
same,T/C,"dose: 50.0 mg/kg/injection, schedule: Q01DX Z (ip), vehicle: carboxymethylcellulose (CMC)",115 % of control
CSCS(=O)C[C@H](CO)NC(=O)/C=C/c1c(C)[nH]c(=O)[nH]c1=O (stereo partly drawn),T/C,"dose: 0.12 mg/kg/injection, schedule: Q01DX Z (ip), vehicle: saline",100 % of control
same,T/C,"dose: 0.25 mg/kg/injection, schedule: Q01DX Z (ip), vehicle: saline",107 % of control
same,T/C,"dose: 0.5 mg/kg/injection, schedule: Q01DX Z (ip), vehicle: saline",105 % of control
same,T/C,"dose: 1.0 mg/kg/injection, schedule: Q01DX Z (ip), vehicle: saline",110 % of control
CS(=O)(=O)OCCCCOS(C)(=O)=O,T/C,"dose: 0.2 mg/kg/injection, schedule: Q01DX Z (ip), vehicle: methylcellulose (MC)",87 % of control
same,T/C,"dose: 0.4 mg/kg/injection, schedule: Q01DX Z (ip), vehicle: methylcellulose (MC)",100 % of control
same,T/C,"dose: 0.8 mg/kg/injection, schedule: Q01DX Z (ip), vehicle: methylcellulose (MC)",98 % of control
same,T/C,"dose: 1.6 mg/kg/injection, schedule: Q01DX Z (ip), vehicle: methylcellulose (MC)",89 % of control and 104 % of control
same,T/C,"dose: 6.4 mg/kg/injection, schedule: Q01DX Z (ip), vehicle: methylcellulose (MC)",94 % of control
same,T/C,"dose: 12.8 mg/kg/injection, schedule: Q01DX Z (ip), vehicle: methylcellulose (MC)",94 % of control
same,T/C,"dose: 25.6 mg/kg/injection, schedule: Q01DX Z (ip), vehicle: methylcellulose (MC)",87 % of control
CN(C)c1nc(N(C)C)nc(N(C)C)n1,T/C,"dose: 31.25 mg/kg/injection, schedule: Q01DX Z (ip), vehicle: carboxymethylcellulose (CMC)",113 % of control
same,T/C,"dose: 62.5 mg/kg/injection, schedule: Q01DX Z (ip), vehicle: carboxymethylcellulose (CMC)",111 % of control
same,T/C,"dose: 125.0 mg/kg/injection, schedule: Q01DX Z (ip), vehicle: carboxymethylcellulose (CMC)",113 % of control
same,T/C,"dose: 500.0 mg/kg/injection, schedule: Q01DX Z (ip), vehicle: carboxymethylcellulose (CMC)",111 % of control
same,T/C,"dose: 1000.0 mg/kg/injection, schedule: Q01DX Z (ip), vehicle: carboxymethylcellulose (CMC)",93 % of control
C[C@]12C=CC(=O)C=C1CC[C@@H]1[C@@H]2C(=O)C[C@@]2(C)[C@H]1CC[C@]2(O)C(=O)CO,T/C,"dose: 12.5 mg/kg/injection, schedule: Q01DX Z (sc), vehicle: steriod suspending solution",101 % of control
same,T/C,"dose: 25.0 mg/kg/injection, schedule: Q01DX Z (sc), vehicle: steriod suspending solution",108 % of control
same,T/C,"dose: 50.0 mg/kg/injection, schedule: Q01DX Z (sc), vehicle: steriod suspending solution",104 % of control
same,T/C,"dose: 100.0 mg/kg/injection, schedule: Q01DX Z (sc), vehicle: steriod suspending solution",108 % of control
O=C(Nc1ccc(C2=NCCCN2)cc1)c1ccc(NC(=O)c2ccc(C3=NCCCN3)cc2)cc1,T/C,"dose: 4.0 mg/kg/injection, schedule: Q01DX Z (ip), vehicle: carboxymethylcellulose (CMC)",168 % of control
same,T/C,"dose: 8.0 mg/kg/injection, schedule: Q01DX Z (ip), vehicle: carboxymethylcellulose (CMC)",176 % of control
same,T/C,"dose: 16.0 mg/kg/injection, schedule: Q01DX Z (ip), vehicle: carboxymethylcellulose (CMC)",108 % of control
"Cc1c2oc3c(C)ccc(C(=O)N[C@@H]4C(=O)N[C@H](C(C)C)C(=O)N5CCC[C@H]5C(=O)N(C)CC(=O)N(C)[C@@H](C(C)C)C(=O)O[C@H]4C)c3nc-2c(C(=O)N[C@@H]2C(=O)N[C@H](C(C)C)C(=O)N3CCC[C@H]3C(=O)N(C)CC(=O)N(C)[C@@H](C(C)C)C(=O)O[C@H]2C)c(N)c1=O (I: [aThr][dV]P[Sar][NMeV] / II: [aThr][dV]P[Sar][NMeV]; ester I:1-I:C, II:1-II:C; linker I:N-II:N via Actinocin(9to1))",T/C,"dose: 0.8 micrograms/kg/injection, schedule: Q01DX Z (ip), vehicle: saline",106 % of control
same,T/C,"dose: 1.6 micrograms/kg/injection, schedule: Q01DX Z (ip), vehicle: saline",106 % of control
same,T/C,"dose: 2.5 micrograms/kg/injection, schedule: Q01DX Z (ip), vehicle: saline",96 % of control
same,T/C,"dose: 4.9 micrograms/kg/injection, schedule: Q01DX Z (ip), vehicle: saline",102 % of control
same,T/C,"dose: 6.4 micrograms/kg/injection, schedule: Q01DX Z (ip), vehicle: saline",120 % of control
same,T/C,"dose: 9.8 micrograms/kg/injection, schedule: Q01DX Z (ip), vehicle: saline",98 % of control
same,T/C,"dose: 19.5 micrograms/kg/injection, schedule: Q01DX Z (ip), vehicle: saline",88 % of control
same,T/C,"dose: 38.9 micrograms/kg/injection, schedule: Q01DX Z (ip), vehicle: saline",122 % of control
same,T/C,"dose: 51.2 micrograms/kg/injection, schedule: Q01DX Z (ip), vehicle: saline",115 % of control
same,T/C,"dose: 102.4 micrograms/kg/injection, schedule: Q01DX Z (ip), vehicle: saline",103 % of control
